Assay results taken from patent publication US20250275539A1, “APYRASE INHIBITORS” (Texas Crop Science, Inc., priority 2024, published 2025).
Like-named read-outs stand apart in the source and are kept apart here.

Key:
[1] = tested on: Amaranthus retroflexus (pigweed); assay: Enhancement of herbicide activity: pre-emergence Amaranthus kill with metribuzin; assay type: in vivo; conditions: for pest or weed control at 100 g/ha: Amaranthus retroflexus
Protocol: Specifically, Amaranthus retroflexus (pigweed) was treated pre-emergence with metribuzin alone or in combination with an enhancer compound disclosed herein. Fifteen seeds of Amaranthus retroflexus were sown in soil in each pot and then sprayed with a mixture of metribuzin at the appropriate rate shown in Table 5 and the compound of this invention at 100 g/ha using a track sprayer at a water volume of 200 L/hectare. Small amounts of acetone were used to aid solubility. The pots were watered immediately after sowing and treatment and then allowed to stand in a glasshouse. Assessment of kill was made seven and fourteen days after treatment. The test included four replicates for each treatment and the control.

[2] = tested on: Brown Rust (Puccinia recondita) on wheat; assay: Greenhouse crop test: control of Brown Rust on wheat in combination with commercial fungicides; assay type: in vivo; conditions: wheat JB Diego, inoculated 24 hours after treatment, evaluated at fourteen days
Protocol: In this method, exemplary compounds were evaluated for their ability to control Brown Rust (Puccinia recondita) on wheat in a controlled greenhouse environment in combination with one of four fungicides, Amistar, Imtrex, Proline or Balaya. In these studies, wheat plants (JB Diego) were used. Seeds were sown in 9 cm diameter pots to a depth of 1 to 2 cm using Petersfield potting compost (75% medium grade peat, 12% screened sterilized loam, 3% medium grade vermiculite, 10% grit (5 mm screened, lime free), 1.5 kg PG mix per m3, lime to pH5.5-6.0 and wetting agent (Vitax Ultrawet 200 ml per m3) and germinated/grown at 23 C under a 16 h day/8 h night light regime. Plants were treated two to three weeks after sowing when they were at the BBCH 11 growth stage ([…]). Wheat plants were inoculated with Puccinia triticina (Brown rust) 24 hours after treatment. A track sprayer was used to treat the plants with the mixture of commercial fungicide and test compound using a water volume of 200 L/ha. Four replicates were used for each combination of fungicide, pathogen and test compound. Each plant was evaluated at fourteen days (once the disease symptoms were fully expressed) for % control of the disease. Appropriate controls were used for all experiments, including an ‘inoculation check’ wherein plants were inoculated with their specific pathogen to assess disease levels. Also, each commercial fungicide was tested on its own as a part of each treatment, this being benchmark against which the experimental compounds were evaluated. […] That is, the present compounds, although not fungicidal by themselves, enhance the activity of fungicides, thus the enhancer compounds work synergistically in combination with fungicides to control disease. • Amistar (0.04 L/ha) • Imtrex (0.45 L/ha) • Proline (0.15 L/ha) • Balaya (0.25 L/ha)

apyrase = assay: Apyrase inhibition assay (screen for apyrase inhibitors, phosphate release read at 630 nm); assay type: biochemical; conditions: inhibitor conc at 1 mM (10 μl added), 3 mM ATP, pH 6.5, room temperature 1 hr
[3] = tested on: strain of Zymoseptoria tritici with a reduced susceptibility to strobilurin fungicides; assay: In vitro assessment of combination activity with fungicides, pathogen growing on agar; assay type: cell-based; conditions: in combination with azoxystrobin, fluxapyroxad or desthio prothioconazole
Protocol: (§1) Selected compounds are assessed in combination with fungicides against a range of commercially important plant pathogenic fungi.
(§2) The test is conducted as follows. A fungicide is applied to a fungal plant pathogen at a rate slightly below that at which it gave any control, in combination with a suitable dose of the test compound. The test compounds are recorded as active if control of the pathogen was observed.
(§3) In more detail, the test is conducted as follows. For each combination of fungicide, pathogen and test compound, the following wells are used. Well 1 contains a fungal pathogen growing on agar, and a fungicide at a rate just below that at which it gave any control of the pathogen. Well 2 is the same as Well 1, except that the test compound is also added at Rate 1. Well 3 is the same as Well 2, except that the test compound is added at Rate 2, where Rate 2 is higher than Rate 1. Finally, as a benchmark, Well 4 is the same as Well 1, except that it contained the fungicide at a higher rate, at which it gave partial control of the pathogen. Each of the Wells 1 to 4 are run in duplicate, giving a total of 8 wells for each combination of fungicide, pathogen and test compound. For each well, after a suitable period of incubation, a visual assessment of the % control of the pathogen by the fungicide is made.
(§4) The following fungicides are used in this assay: azoxystrobin, fluxapyroxad, and desthio prothioconazole. The following fungal pathogens are used in this assay: First, a strain of Zymoseptoria tritici with a reduced susceptibility to strobilurin fungicides; second a strain of Zymoseptoria tritici with a reduced susceptibility to SDHI fungicides (i.e., those that inhibit succinate dehydrogenase); and third, Microdochium nivale. […] In contrast, compounds of the present disclosure are effective in the combination assay, enhancing fungicidal activity of one or more fungicides against at least one strain.

[4] = tested on: strain of Zymoseptoria tritici with a reduced susceptibility to SDHI fungicides; assay: as above; assay type: cell-based; conditions: in combination with azoxystrobin, fluxapyroxad or desthio prothioconazole
Protocol: as §1, §2, §3, §4

Microdochium nivale = assay: as above; assay type: cell-based; conditions: in combination with azoxystrobin at a rate just below that giving control; visual % control
Protocol: as §1, §2, §3, §4

| SMILES | pest or weed control at 100 g/ha ([1]; 168 h, read-out: Pre-Emergence Amaranthus Kill Percentage, Assessed 7 DAT, Metribuzin rate 50 g/ha) [%] | pest or weed control at 100 g/ha ([1]; 168 h, read-out: Pre-Emergence Amaranthus Kill Percentage, Assessed 7 DAT, Metribuzin rate 100 g/ha) [%] | pest or weed control at 100 g/ha ([1]; 168 h, read-out: Pre-Emergence Amaranthus Kill Percentage, Assessed 7 DAT, Metribuzin rate 200 g/ha) [%] | pest or weed control at 100 g/ha ([1]; 336 h, read-out: Pre-Emergence Amaranthus Kill Percentage, Assessed 14 DAT, Metribuzin rate 50 g/ha) [%] | pest or weed control at 100 g/ha ([1]; 336 h, read-out: Pre-Emergence Amaranthus Kill Percentage, Assessed 14 DAT, Metribuzin rate 100 g/ha) [%] | pest or weed control at 100 g/ha ([1]; 336 h, read-out: Pre-Emergence Amaranthus Kill Percentage, Assessed 14 DAT, Metribuzin rate 200 g/ha) [%] | enhancement of metribuzin herbicidal activity ([1]; compound at 100 g/ha with metribuzin, at seven and fourteen days) | Amistar (% control of the disease, compound + fungicide) ([2]; with Amistar 0.04 L/ha) [%] | Balaya (% control of the disease, compound + fungicide) ([2]; with Balaya 0.25 L/ha) [%] | Imtrex (% control of the disease, compound + fungicide) ([2]; with Imtrex 0.45 L/ha) [%] | Proline (% control of the disease, compound + fungicide) ([2]; with Proline 0.15 L/ha) [%] | Inhibition (apyrase) | enhancement of fungicide activity against Zymoseptoria tritici strain (reduced susceptibility to strobilurin fungicides) [3] | enhancement of fungicide activity against Zymoseptoria tritici strain (reduced susceptibility to SDHI fungicides) [4] | enhancing the activity of azoxystrobin against Microdochium nivale (Microdochium nivale) |
| --- | --- | --- | --- | --- | --- | --- | --- | --- | --- | --- | --- | --- | --- | --- | --- |
| Cc1ccc(C(=O)N(C)C)cc1NS(=O)(=O)c1ccc(-c2ccccc2)cc1 [Compound A-108, 3-([1,1′-biphenyl]-4-sulfonamido)-N,N,4-trimethylbenzamide] | 6.3 | 76.5 | 100 | 13.5 | 78.8 | 100 | significant enhancement | 92.1 | 31.7 | 40.5 | −1.2 | A (A is inhibition above 30%) |  |  |  |
| O=C(Nc1cccc([N+](=O)[O-])c1)c1cccc(S(=O)(=O)Nc2ccc(Br)cc2)c1 [Roux Compound 13] |  |  |  |  |  |  |  |  |  |  |  |  | failing to enhance activity of any fungicide | failing to enhance activity of any fungicide | exhibited activity |
